Reference: article PMC11882969 (Nature Communications, 2025)
“And” between values parts separate entries of the source, which are not always exact repeats. Identical values can stand only once.

Legend:
hCB1 = hCB1 (Homo sapiens, UniProt P21554); assay: bioSensAll ebBRET signaling profiling, hCB1; format: cell-based; parameters: host or cells: HEK293SL cells, transient PEI transfection; conditions: for Gi1 hCB1 response: Gi1 biosensor; for Gi1 hCB1 / GoB hCB1: single replicate values, FigS6a
CB1 (rCB1) = CB1 (rCB1) (Rattus norvegicus, UniProt P20272); assay: Radioligand competition binding, [3H]-CP-55,940, rat brain membranes
Chain of CB1 (rCB1) (P20272 whole entry): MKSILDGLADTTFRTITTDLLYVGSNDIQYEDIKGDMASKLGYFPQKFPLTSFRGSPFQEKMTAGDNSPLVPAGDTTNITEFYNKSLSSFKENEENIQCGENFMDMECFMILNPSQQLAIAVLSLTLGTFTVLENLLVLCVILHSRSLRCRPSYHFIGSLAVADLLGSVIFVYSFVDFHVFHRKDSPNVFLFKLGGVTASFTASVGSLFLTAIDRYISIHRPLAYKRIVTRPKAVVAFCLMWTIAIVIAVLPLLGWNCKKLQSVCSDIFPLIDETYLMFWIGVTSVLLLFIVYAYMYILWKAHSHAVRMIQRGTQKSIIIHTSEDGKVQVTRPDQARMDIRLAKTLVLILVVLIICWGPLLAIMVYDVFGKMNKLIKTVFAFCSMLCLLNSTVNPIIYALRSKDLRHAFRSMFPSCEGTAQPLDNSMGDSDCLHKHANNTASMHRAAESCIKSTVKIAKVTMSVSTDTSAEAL

Chain of hCB1 (P21554 whole entry): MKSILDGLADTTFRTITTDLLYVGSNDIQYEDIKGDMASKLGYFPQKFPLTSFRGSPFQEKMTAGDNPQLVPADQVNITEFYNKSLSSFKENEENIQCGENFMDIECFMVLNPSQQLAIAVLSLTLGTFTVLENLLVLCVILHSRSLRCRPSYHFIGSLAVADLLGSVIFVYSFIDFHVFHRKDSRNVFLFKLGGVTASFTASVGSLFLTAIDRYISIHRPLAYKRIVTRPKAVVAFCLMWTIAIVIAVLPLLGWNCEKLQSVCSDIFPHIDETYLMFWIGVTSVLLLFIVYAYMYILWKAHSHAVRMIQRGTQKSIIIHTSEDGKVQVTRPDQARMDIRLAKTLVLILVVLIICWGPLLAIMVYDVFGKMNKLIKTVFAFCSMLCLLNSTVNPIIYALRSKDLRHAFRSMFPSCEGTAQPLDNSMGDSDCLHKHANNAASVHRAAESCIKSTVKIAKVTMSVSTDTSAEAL

Structure (SMILES): Cc1cc(C(=O)N(C)C(c2ccco2)c2ccco2)nn1-c1cccc(C(F)(F)F)c1 [‘4388]
- Gi1 hCB1 response (hCB1; Log [Compound] (M) -4.22186): -4.018
- Gi1 hCB1 response (hCB1; Log [Compound] (M) -4.63927): -19.2595
- Gi1 hCB1 response (hCB1; Log [Compound] (M) -5.05788): -23.1763
- Gi1 hCB1 response (hCB1; Log [Compound] (M) -5.47381): 10.5525
- Gi1 hCB1 response (hCB1; Log [Compound] (M) -5.89285): -11.6498
- Gi1 hCB1 response (hCB1; Log [Compound] (M) -6.31878): -15.6337
- Gi1 hCB1 response (hCB1; Log [Compound] (M) -6.72585): 2.07
- Gi1 hCB1 response (hCB1; Log [Compound] (M) -7.14267): 5.942
- Gi1 hCB1 response (hCB1; Log [Compound] (M) -7.55284): 4.107
- Gi1 hCB1 response (hCB1; Log [Compound] (M) -8): 5.7853
- Gi1 hCB1 response (hCB1; Log [Compound] (M) -8.22186): 57.4864
- Gi1 hCB1 response (hCB1; Log [Compound] (M) -8.39794): -7.509
- Gi1 hCB1 response (hCB1; Log [Compound] (M) -8.68787): 16.0808
- Gi1 hCB1 response (hCB1; Log [Compound] (M) -9.15521): -3.346
- Gi1 hCB1 response (hCB1; Log [Compound] (M) -9.61989): -13.3061
- Gi1 hCB1 response (hCB1; Log [Compound] (M) -10.0969): -9.456
- Gi1 hCB1 response (hCB1; Log [Compound] (M) -10.5529): 6.658
- Gi1 hCB1 response (hCB1; Log [Compound] (M) -11.0177): 9.836
- Gi1 hCB1 response (hCB1; Log [Compound] (M) -11.4949): 13.8426
- Gi1 hCB1 response (hCB1; Log [Compound] (M) -11.9208): 7.912
- Gi1 hCB1 response (hCB1; Log [Compound] (M) -12.3979): 17.8713
- Gi1 hCB1 response (hCB1; Log [Compound] (M) -12.8861): 0.7271
- Gi1 hCB1 response (hCB1; Log [Compound] (M) -13, individual replicate values): -6.01 and 6.502
- Gi1 hCB1 (hCB1; Log [Compound] (M) -4.22186): -1.453
- GoB hCB1 (hCB1; Log [Compound] (M) -4.22186): -21.3927
- Gi1 hCB1 (hCB1; Log [Compound] (M) -4.63927): -2.47
- GoB hCB1 (hCB1; Log [Compound] (M) -4.63927): -23.227
- Gi1 hCB1 (hCB1; Log [Compound] (M) -5.05788): -11.3501
- GoB hCB1 (hCB1; Log [Compound] (M) -5.05788): -26.2122
- Gi1 hCB1 (hCB1; Log [Compound] (M) -5.47381): -11.1959
- GoB hCB1 (hCB1; Log [Compound] (M) -5.47381): -26.6258
- Gi1 hCB1 (hCB1; Log [Compound] (M) -5.89285): -9.5
- GoB hCB1 (hCB1; Log [Compound] (M) -5.89285): -20.8711
- Gi1 hCB1 (hCB1; Log [Compound] (M) -6.31878): -8.93
- GoB hCB1 (hCB1; Log [Compound] (M) -6.31878): -17.76
- Gi1 hCB1 (hCB1; Log [Compound] (M) -6.72585): -4.983
- GoB hCB1 (hCB1; Log [Compound] (M) -6.72585): -9.883
- Gi1 hCB1 (hCB1; Log [Compound] (M) -7.14267): 0.7674
- GoB hCB1 (hCB1; Log [Compound] (M) -7.14267): -5.046
- Gi1 hCB1 (hCB1; Log [Compound] (M) -7.55284): 2.355
- GoB hCB1 (hCB1; Log [Compound] (M) -7.55284): 0.4032
- Gi1 hCB1 (hCB1; Log [Compound] (M) -8): 1.985
- GoB hCB1 (hCB1; Log [Compound] (M) -8): -1.107
- Gi1 hCB1 (hCB1; Log [Compound] (M) -8.22186): 1.292
- GoB hCB1 (hCB1; Log [Compound] (M) -8.22186): -1.989
- Gi1 hCB1 (hCB1; Log [Compound] (M) -8.39794): 1.677
- GoB hCB1 (hCB1; Log [Compound] (M) -8.39794): 0.9427
- Gi1 hCB1 (hCB1; Log [Compound] (M) -8.68787): 1.23
- GoB hCB1 (hCB1; Log [Compound] (M) -8.68787): -0.8377
- Gi1 hCB1 (hCB1; Log [Compound] (M) -9.15521): 0.9215
- GoB hCB1 (hCB1; Log [Compound] (M) -9.15521): -0.8737
- Gi1 hCB1 (hCB1; Log [Compound] (M) -9.61989): 0.08902
- GoB hCB1 (hCB1; Log [Compound] (M) -9.61989): -0.7118
- Gi1 hCB1 (hCB1; Log [Compound] (M) -10.0969): 1.816
- GoB hCB1 (hCB1; Log [Compound] (M) -10.0969): -0.7298
- Gi1 hCB1 (hCB1; Log [Compound] (M) -10.5529): 1.122
- GoB hCB1 (hCB1; Log [Compound] (M) -10.5529): -2.258
- Gi1 hCB1 (hCB1; Log [Compound] (M) -11.0177): 1.6
- GoB hCB1 (hCB1; Log [Compound] (M) -11.0177): 0.6549
- Gi1 hCB1 (hCB1; Log [Compound] (M) -11.4949): 2.232
- GoB hCB1 (hCB1; Log [Compound] (M) -11.4949): -1.305
- Gi1 hCB1 (hCB1; Log [Compound] (M) -11.9208): 2.186
- GoB hCB1 (hCB1; Log [Compound] (M) -11.9208): -1.089
- Gi1 hCB1 (hCB1; Log [Compound] (M) -12.3979): 1.137
- GoB hCB1 (hCB1; Log [Compound] (M) -12.3979): -1.305
- Gi1 hCB1 (hCB1; Log [Compound] (M) -12.8861): 1.415
- GoB hCB1 (hCB1; Log [Compound] (M) -12.8861): -0.9816
- Gi1 hCB1 (hCB1; Log [Compound] (M) -13): 2.1086 and 2.987
- GoB hCB1 (hCB1; Log [Compound] (M) -13): 0.8707 and 0.2953
- pKi [95% CI] (CB1 (rCB1); rCB1): 5.9 [5.7 – 6.0]
- Ki (CB1 (rCB1); read-out: Ki [95% CI], rCB1, [3H]-CP-55,940): 1360 nM
